In brackets after ≈: the same amount, converted by molar mass. Where two headings read alike, the source gives them in different places.
Columns and labels:
[1] = system: Pseudomonas aeruginosa TI-13; assay: Minimum inhibitory concentration, serial dilution on nutrient agar; format: cell-based
[2] = system: Escherichia coli JR66/W677; assay: as above; format: cell-based; conditions: JR66/W677, 18 h
[3] = system: Pseudomonas aeruginosa GN315; assay: as above; format: cell-based; conditions: GN315, 18 h
[4] = system: Mycobacterium smegmatis ATCC 607; assay: as above; format: cell-based; conditions: Mycolicibacterium smegmatis, ATCC607; nutrient agar, 37° C., 18 hours incubation; read-out: MIC
[5] = system: Klebsiella pneumoniae PCI 602; assay: as above; format: cell-based
[6] = system: Escherichia coli K-12 LA 290 R56; assay: as above; format: cell-based; conditions: K12LA290R56, 18 h
[7] = system: Escherichia coli JR255; assay: as above; format: cell-based; conditions: JR255, nutrient agar, 37° C., 18 hours incubation, read-out: MIC
[8] = system: Staphylococcus aureus AP01; assay: as above; format: cell-based; conditions: 37° C., 18 hours incubation
[9] = system: Pseudomonas aeruginosa K-Ps102; assay: as above; format: cell-based
[10] = system: Proteus rettgeri GN466; assay: as above; format: cell-based; conditions: Providencia rettgeri
[11] = system: Salmonella enteritidis 1891; assay: as above; format: cell-based; conditions: Salmonella enterica, nutrient agar, 37° C., 18 hours incubation, read-out: MIC
[12] = system: Pseudomonas aeruginosa 99; assay: as above; format: cell-based; conditions: Pseudomonas aeruginosa, 99, 18 h
[13] = system: Serratia marcescens; assay: as above; format: cell-based; conditions: 37° C., 18 hours incubation
[14] = system: Serratia SOU; assay: as above; format: cell-based; conditions: 37° C., 18 hours incubation
[15] = system: Sarcina lutea PCI 1001; assay: as above; format: cell-based; conditions: Micrococcus luteus
[16] = system: Pseudomonas aeruginosa H9; assay: as above; format: cell-based; conditions: H9, 18 h
[17] = system: Micrococcus flavus FDA 16; assay: as above; format: cell-based; conditions: FDA16, 18 h
[18] = system: Serratia 4; assay: as above; format: cell-based; conditions: 37° C., 18 hours incubation
[19] = system: Pseudomonas aeruginosa PST1; assay: as above; format: cell-based; conditions: PST1, nutrient agar, 37° C., 18 hours incubation, read-out: MIC
[20] = system: Escherichia coli K-12 ML 1410; assay: as above; format: cell-based; conditions: K12ML1410, 18 h
[21] = system: Pseudomonas aeruginosa B-13; assay: as above; format: cell-based; conditions: B13, 37° C., 18 hours incubation
[22] = system: Providencia Pv 16; assay: as above; format: cell-based; conditions: PV16, 37° C., 18 hours incubation
[23] = system: Escherichia coli K-12 ML 1629; assay: as above; format: cell-based; conditions: K12ML1629, nutrient agar, 37° C., 18 hours incubation, read-out: MIC
[24] = system: Pseudomonas aeruginosa 21-75; assay: as above; format: cell-based; conditions: 2175, 37° C., 18 hours incubation
[25] = system: Proteus rettgeri GN311; assay: as above; format: cell-based; conditions: Providencia rettgeri, 37° C., 18 hours incubation
[26] = system: Proteus vulgaris OX19; assay: as above; format: cell-based; conditions: 37° C., 18 hours incubation
[27] = system: Escherichia coli K-12 LA 290 R64; assay: as above; format: cell-based; conditions: K12LA290R64, 18 h
[28] = system: Escherichia coli K-12 R5; assay: as above; format: cell-based; conditions: K12R5, 18 h
[29] = system: Pseudomonas maltophilia GN907; assay: as above; format: cell-based; conditions: Stenotrophomonas maltophilia, 37° C., 18 hours incubation
[30] = system: Escherichia coli K-12; assay: as above; format: cell-based; conditions: K12, nutrient agar, 37° C., 18 hours incubation, read-out: MIC
[31] = system: Shigella dysenteriae JS 11910; assay: as above; format: cell-based; conditions: JS11910, 18 h
[32] = system: Klebsiella pneumoniae 22 #3038; assay: as above; format: cell-based
[33] = Acute toxicity by intravenous injection in mice; conditions: mouse, in vivo
[34] = system: Staphylococcus aureus Smith; assay: Minimum inhibitory concentration, serial dilution on nutrient agar; format: cell-based; conditions: 37° C., 18 hours incubation
[35] = system: Pseudomonas aeruginosa A3; assay: as above; format: cell-based; conditions: 37° C., 18 hours incubation

Compound	MIC [2] [µg/mL]	MIC [3] [µg/mL]	MIC [4] [µg/mL]	MIC [6] [µg/mL]	MIC [7] [µg/mL]	MIC [8] [µg/mL]	MIC [11] [µg/mL]	MIC [12] [µg/mL]	MIC [13] [µg/mL]	MIC [14] [µg/mL]	MIC [16] [µg/mL]	MIC [17] [µg/mL]	MIC [18] [µg/mL]	MIC [19] [µg/mL]	MIC [20] [µg/mL]	MIC [21] [µg/mL]	MIC [22] [µg/mL]	MIC [23] [µg/mL]	MIC [24] [µg/mL]	MIC [25] [µg/mL]	other results
CNC[C@@H]1CC[C@@H](N)[C@@H](O[C@H]2C[C@@H](O[C@H]3O[C@H](CO)[C@@H](O)[C@H](N)[C@H]3O)[C@H](NC(=O)[C@@H](O)CCN)C[C@@H]2N)O1 [AHB-trideoxyMKMB, 1-N-[(S)-4-amino-2-hydroxybutyryl]-5,3',4'-trideoxy-6'-N-methylkanamycin B]	1.56 (≈ 2.83 µM)	3.13 (≈ 5.68 µM)	< 0.2	0.78 (≈ 1.42 µM)	0.78 (≈ 1.42 µM)	0.39 (≈ 0.708 µM)	0.78 (≈ 1.42 µM)	3.13 (≈ 5.68 µM)	6.25 (≈ 11.4 µM)	25 (≈ 45.4 µM)	1.56 (≈ 2.83 µM)	1.56 (≈ 2.83 µM)	6.25 (≈ 11.4 µM)	12.5 (≈ 22.7 µM)	1.56 (≈ 2.83 µM)	12.5 (≈ 22.7 µM)	6.25 (≈ 11.4 µM)	0.78 (≈ 1.42 µM)	12.5 (≈ 22.7 µM)	50 (≈ 90.8 µM)	MIC ([1]; TI13, 18 h): 1.56 µg/mL (≈ 2.83 µM); MIC ([5]; PCI602, nutrient agar, 37° C., 18 hours incubation, read-out: MIC): 0.78 µg/mL (≈ 1.42 µM); MIC ([9]; KPS102, 18 h): 1.56 µg/mL (≈ 2.83 µM); MIC ([10]; GN466, nutrient agar, 37° C., 18 hours incubation, read-out: MIC): 6.25 µg/mL (≈ 11.4 µM); MIC ([15]; PCI1001, nutrient agar, 37° C., 18 hours incubation, read-out: MIC): 0.39 µg/mL (≈ 0.708 µM); MIC [26]: < 0.2 µg/mL; MIC [27]: 1.56 µg/mL (≈ 2.83 µM); MIC [28]: 3.13 µg/mL (≈ 5.68 µM); MIC [29]: > 100 µg/mL; MIC [30]: 0.78 µg/mL (≈ 1.42 µM); MIC [31]: 1.56 µg/mL (≈ 2.83 µM); MIC ([32]; 18 h): 1.56 µg/mL (≈ 2.83 µM); LD50 [33]: 50 to 100 mg/kg; MIC [34]: < 0.2 µg/mL
NCC[C@H](O)C(=O)N[C@@H]1C[C@H](N)[C@@H](O[C@H]2O[C@H](CN)CC[C@H]2N)[C@H](O)[C@H]1O[C@H]1O[C@H](CO)[C@@H](O)[C@H](N)[C@H]1O [Habekacin, 1-N-[(S)-4-amino-2-hydroxybutyryl]-3',4'-dideoxykanamycin B, reference compound]	6.25 (≈ 11.3 µM)	6.25 (≈ 11.3 µM)	0.39 (≈ 0.706 µM)	3.13 (≈ 5.66 µM)	3.13 (≈ 5.66 µM)	0.78 (≈ 1.41 µM)	3.13 (≈ 5.66 µM)	6.25 (≈ 11.3 µM)	50 (≈ 90.5 µM)	> 100	6.25 (≈ 11.3 µM)	1.56 (≈ 2.82 µM)	50 (≈ 90.5 µM)	25 (≈ 45.2 µM)	6.25 (≈ 11.3 µM)	25 (≈ 45.2 µM)	25 (≈ 45.2 µM)	3.13 (≈ 5.66 µM)	25 (≈ 45.2 µM)	50 (≈ 90.5 µM)	MIC ([1]; TI13, nutrient agar, 37° C., 18 hours incubation, read-out: MIC): 3.13 µg/mL (≈ 5.66 µM); MIC ([5]; PCI602, 18 h): 1.56 µg/mL (≈ 2.82 µM); MIC ([9]; KPS102, nutrient agar, 37° C., 18 hours incubation, read-out: MIC): 3.13 µg/mL (≈ 5.66 µM); MIC ([10]; GN466, 18 h): 12.5 µg/mL (≈ 22.6 µM); MIC [35]: 3.13 µg/mL (≈ 5.66 µM); MIC ([15]; PCI1001, 18 h): 1.56 µg/mL (≈ 2.82 µM); MIC [26]: 0.78 µg/mL (≈ 1.41 µM); MIC [27]: 3.13 µg/mL (≈ 5.66 µM); MIC [28]: 100 µg/mL (≈ 181 µM); MIC [29]: > 100 µg/mL; MIC [30]: 3.13 µg/mL (≈ 5.66 µM); MIC [31]: 12.5 µg/mL (≈ 22.6 µM); MIC ([32]; nutrient agar, 37° C., 18 hours incubation, read-out: MIC): 3.13 µg/mL (≈ 5.66 µM); MIC [34]: < 0.2 µg/mL

From patent US4410516A, “1-N(αHydroxy-ω-aminoalkanoyl) derivatives of 5,3',4'-trideoxy- or 5,3', 4'-trideoxy-6'-N- methyl- or 5, 3', 4',6"-tetradeoxykannamyci B and production thereof” (Zaidan Hojin Biseibutsu Kagaku Kenkyu Kai, priority 1981, dated 1983)
